Reference: patent US9839614B2, “Nanoparticle and polymer formulations for thyroid hormone analogs, antagonists, and formulations and uses thereof” (NANOPHARMACEUTICALS LLC, priority 2009, dated 2017)

Experiments:
ERK1/2 = test: MAPK activation in ECV304 cells (nuclear phosphorylated ERK1/2 immunoblot); type: cell-based; settings: for effect on T4-induced ERK1/2 (MAPK) activation: PD 98059 30 μmol/L or CGP41251 100 nmol/L, 30 minutes before T4
Procedure: ECV304 endothelial cells were cultured in M199 medium with 0.25% hormone-depleted serum 13 for 2 days. […] Nuclear fractions were pre-pared from all samples by the method reported previously (see Li et al., Carcinogenesis 29:62-69 (2008)), the proteins separated by polyacrylamide gel electrophoresis, and transferred to membranes for immunoblotting with antibody to phosphorylated ERK 1/2.

[1] = cited from earlier work
V-79 cells = settings: reduced from 3.4; cited from earlier work
FGF2 cDNA = test: RT-PCR of FGF2 in ECV304 cells; type: cell-based; settings: T4 10^−7 mol/L, 6 to 48 hours
Procedure: RNA (1 μg) was subjected to reverse transcription-polymerase chain reaction (RT-PCR) using the Access RT-PCR system (Promega). Total RNA was reverse transcribed into cDNA at 48° C. for 45 minutes, then denatured at 94° C. for 2 minutes. Second-strand synthesis and PCR amplification were performed for 40 cycles with denaturation at 94° C. for 30 s, annealing at 60° C. for 60 s, and extension at 68° C. for 120 s, with final ex-tension for 7 minutes at 68° C. after completion of all cycles. PCR primers for FGF2 were as follows: FGF2 sense strand 5′-[…]-3′ (SEQ ID NO:1), antisense strand 5′ […]-3′ (SEQ ID NO:2); the length of the PCR product was 734 bp. Primers for GAPDH included the sense strand 5′-[…]-3′ (SEQ ID NO:3), and antisense strand 5′-[…]-3′ (SEQ ID NO:4); the length of the PCR product was 218 bp. […] The target bands of the gel were quantified using Lablmage software (Kapelan), and the value for [FGF2/GAPDH]X10 calculated for each time point.

[2] = tested on: chick chorioallantoic membrane (CAM) blood vessel branching; test: Chorioallantoic membrane (CAM) model of angiogenesis; type: in vivo
Procedure: In vivo neovascularization was examined by methods described previously. 9-12 Ten-day-old chick embryos were purchased from SPAFAS (Preston, Conn.) and incubated at 37° C. with 55% relative humidity. A hypodermic needle was used to make a small hole in the shell concealing the air sac, and a second hole was made on the broad side of the egg, directly over an avascular portion of the embryonic membrane that was identified by candling. A false air sac was created beneath the second hole by the application of negative pressure at the first hole, causing the CAM to separate from the shell. A window approximately 1.0 cm^2 was cut in the shell over the dropped CAM with a small-crafts grinding wheel (Dremel, division of Emerson Electric Co.), allowing direct access to the underlying CAM. […] Sterile disks of No. 1 filter paper (Whatman International) were pretreated with 3 mg/mL cortisone acetate and 1 mmol/L PTU and air dried under sterile conditions. Thyroid hormone, hormone analogs, FGF2 or control solvents, and inhibitors were then applied to the disks and the disks allowed to dry. The disks were then suspended in PBS and placed on growing CAMs. […] At 24 hours, the MAPK cascade inhibitor PD 98059 was also added to CAMs topically by means of the filter disks.
After incubation at 37° C. with 55% relative humidity for 3 days, the CAM tissue directly beneath each filter disk was resected from control and treated CAM samples. Tissues were washed 3× with PBS, placed in 35-mm Petri dishes (Nalge Nunc), and examined under an SV6 stereomicroscope (Zeiss) at X50 magnification. Digital images of CAM sections exposed to filters were collected using a 3-charge-coupled device color video camera system (Toshiba) and analyzed with Image-Pro software (Media Cybernetics). The number of vessel branch points contained in a circular region equal to the area of each filter disk were counted. One image was counted in each CAM preparation, and findings from 8 to 10 CAM preparations were analyzed for each treatment condition (thyroid hormone or analogs, FGF2, FGF2 antibody, PD 98059). In addition, each experiment was performed 3 times. The resulting angiogenesis index is the mean±SEM of new branch points.

[3] = estimated; cited from earlier work
SF763 glioblastoma cells = settings: 85 μM, 16 hours at 37° C., cited from earlier work
ECV304 endothelial cells = test: FGF2 release from ECV304 endothelial cells (ELISA); type: cell-based
Procedure: ECV304 endothelial cells were cultured in M199 medium supplemented with 10% fetal bovine serum. […] After 72 hours, the supernatants were harvested and assays for FGF performed without dilution using a commercial ELISA system (R&D Systems) (See Davis et al., Circ Res 94:1500-1506 (2004)).

glioblastoma (GBM) = settings: mild hypothyroidism induced by PTU; cited from earlier work
[4] = tested on: transplantable liver tumor; settings: cited from earlier work
[5] = tested on: Morris 7800 hepatoma neoplasms; settings: PTU 0.1%; cited from earlier work
M21 cells = settings: 20 ug/ml; 0, 5, and 10 Gy; cited from earlier work

Which “effect on T4-induced ERK1/2 (MAPK) activation” value (ERK1/2) does the source give for `CO[C@@H]1[C@H](N(C)C(=O)c2ccccc2)C[C@H]2O[C@]1(C)n1c3ccccc3c3c4c(c5c6ccccc6n2c5c31)C(=O)NC4` [CGP41251] here?
The value was “blocked the effect of the hormone on MAPK activation”.

Which “inhibition of PLDR” value [1] does the source give for `NC(=O)c1cccc(N)c1` [Compound 3AB, 3-aminobenzamide] here?
Its value is ~70%.

And the Dq value (V-79 cells)?
The Dq value was 1 Gy.

Which “FGF2 cDNA abundance corrected for GAPDH” value (FGF2 cDNA) does the source give for `N[C@@H](Cc1cc(I)c(Oc2cc(I)c(O)c(I)c2)c(I)c1)C(=O)O` [Compound T4, L-thyroxine] here?
The value was “increase in abundance of FGF2 cDNA”.

What about the “generation of new blood vessels from existing vessels promoted” value ([2]; 10^−7-10^−9M) of the same molecule?
The value was “two-to three-fold”.

And the “combined effect of sub-maximal hormone and growth factor” value ([2]; T4 0.05 μmol/L + FGF2 0.5 μg/mL)?
Its value is “additive”.

And the stimulation of angiogenesis ([2]; T4, anti-FGF2 experiments (FIG. 5A))?
Its stimulation of angiogenesis is 1.5 fold.

And the “time of maximal level of nuclear phosphorylated ERK1/2” value (ERK1/2; T4 10^−7 mol/L)?
The value was 30 min.

What about the “time to appearance of phosphorylated ERK1/2 in cell nuclei” value (ERK1/2; T4 10^−7 mol/L) of the same molecule?
The value was ≤ 15 min.

And the “pKa, COOH (carboxylic acid) group” value [3]?
Its value is ~2.0.

And the “pKa, NH2 (amino) group” value [3]?
Its value is “approximately 9.0”.

Which results are given for `CC(C)[C@H]1C(=O)N[C@@H](CCCN=C(N)N)C(=O)NCC(=O)N[C@@H](CC(=O)O)C(=O)N[C@H](Cc2ccccc2)C(=O)N1C` [EMD121974]?
increase of α (SF763 glioblastoma cells): 4.4 fold; α component in the LQ survival equation (SF763 glioblastoma cells; from approximately 0.04): 0.18 Gy^−1

Which “effect on T3 + T4 stimulated blood vessel branching” value ([2]; 3 μmol/L PD 98059) does the source give for `COc1cccc(-c2cc(=O)c3ccccc3o2)c1N` [PD 98059] here?
The value was “completely blocked”.

What about the “effect on FGF2 stimulation of branch formation” value ([2]; PD 98059 with FGF2 1 μg/mL) of the same molecule?
The value was “effectively blocked”.

What about the “FGF2 (pg/mL/10^6 cells)” value (ECV304 endothelial cells; T3 + PD 98059 (2 μmol/L)) of the same molecule?
Its value is 28.4 ± 3.2 pg/mL/10^6 cells.

What about the “FGF2 (pg/mL/10^6 cells)” value (ECV304 endothelial cells; T3 + PD 98059 (20 μmol/L)) of the same molecule?
Its value is 21.7 ± 3.5 pg/mL/10^6 cells.

And the “FGF2 (pg/mL/10^6 cells)” value (ECV304 endothelial cells; T4 + PD 98059 (2 μmol/L))?
Its value is 26.5 ± 4.5 pg/mL/10^6 cells.

And the “FGF2 (pg/mL/10^6 cells)” value (ECV304 endothelial cells; T4 + PD 98059 (20 μmol/L))?
The value was 23.2 ± 4.8 pg/mL/10^6 cells.

What about the “effect on T4-induced ERK1/2 (MAPK) activation” value (ERK1/2) of the same molecule?
The value was “inhibited”.

With `CCCc1cc(=O)[nH]c(=S)[nH]1` [PTU, 6-N-propyl-2-thiouracil] as the molecule, how does the “improvement of duration of survival” value (glioblastoma (GBM)) read?
The value was 3 fold.

What about the “time needed to grow from approximately 270 mm^3 to 900 mm^3” value ([4]; 10 Gy of x-rays plus 0.05% PTU, control 6.2, x-rays alone 11.2) of the same molecule?
The value was 17.8 days.

And the “tumor growth rate versus control” value ([4]; PTU alone)?
The value was “no difference in growth rate”.

And the increase in survival [5]?
Its increase in survival is “approximately 1.3 fold”.

Which “increase in sensitivity (in vitro apoptosis)” value (M21 cells) does the source give for “CNTO 95: human anti-αv integrin monoclonal antibody” here?
Its value is 2 fold.
